Reference: US20120301478A1, “Pharmaceutical for Preventing or Treating Disorders Accompanied by Ocular Angiogenesis and/or Elevated Ocular Vascular Permeability” (priority 2010, published 2012)

Key:
[1] = injected in the vitreous body of a human; cited from earlier work
STZ-diabetic rat retina = settings: streptozotocin (STZ)-diabetic rat, cited from earlier work
[2] = test system: choroidal neovascularization (CNV) model, increased vascular permeability; test: Laser-induced CNV mouse model, fluorescein-fluorescent fundus angiography, vascular permeability (Experiment 2); assay type: in vivo; settings: fidarestat forced oral 16 mg/kg twice a day (32 mg/kg/day); 7 days after laser irradiation
Method: An anti-VEGF antibody and/or fidarestat were administered to a mouse that had been treated to induce CNV in a similar manner to that in Experiment 1. […] The number of examples was three or four per a group, and the following five groups were set. […] The both eyes were photographed by an eye-fundus camera, and the obtained eye-ground picture was evaluated in a blinded manner according to the following criteria. • grade 0: nonleaky, no leakage from blood-vessel • grade 1: questionable leakage, weak leakage was observed • grade 2: leaky, leakage was observed • grade 3: pathologically significant leakage, clear leakage was observed on wide area The ratio of the number of the FA grade 3 lesions (%) in each eye was calculated, and the average value of the calculated rates in each group was obtained. […]

[3] = test system: choroidal neovascularization (CNV) model; test: Laser-induced choroidal neovascularization (CNV) mouse model, CNV volume (Experiment 1); assay type: in vivo, mouse (male C57BL/6J)
Text: In the CNV model, macrophages migrate by the initiation of an inflammation by laser irradiation. Since VEGF are produced, neovascular vessels are generated, and increased vascular permeability is observed as the result thereof, the CNV model is one of models that produce VEGF. […] The both eyes of a male C57BL/6J mice having a body weight of about 20 g (6-week old) were irradiated with laser (irradiated by 4 to 6 spots per one eye) to induce CNV experimentally. As mentioned below, an anti-VEGF antibody and/or fidarestat were administered as a drug. […] As the anti-VEGF antibody, an anti-mouse VEGF antibody purchased from R&D Systems was used. The number of examples was three or four per a group, and the following four groups were set. […] After completion of the laser irradiation, the mice were bred by general breeding for 7 days, and thereafter the eye balls were excised and the volume of CNV appeared in the choroid was measured. […] The volume of CNV was measured by importing an image in the vicinity of CNV by a confocal laser microscope (Zeiss LSM5 Pascal) and using image analysis software (NIH Image J). […]

| Compound | disappearing half-life [1] | overexpression of VEGF (STZ-diabetic rat retina; retina) | retinal oxidative stress (STZ-diabetic rat retina) | ratio of the number of the FA grade 3 lesions [2] | dose at which the maximum medicinal effect is shown ([3]; CNV mouse model, fidarestat) | effect of suppressing CNV (CNV volume) compared to the untreated group ([3]; fidarestat 32 mg/kg/day in powder feedstuff, from 2 days before to 7 days after laser irradiation) |
| --- | --- | --- | --- | --- | --- | --- |
| ranibizumab: typical anti-VEGF agent, anti-VEGF antibody used as intravitreal injection | 220 h | – | – | – | – | – |
| NC(=O)[C@@H]1C[C@]2(NC(=O)NC2=O)c2cc(F)ccc2O1 [fidarestat, (2S,4S)-6-fluoro-2′,5′-dioxospiro[chroman-4,4′-imidazolidine]-2-carboxamide] | – | suppresses | suppresses | approximately the same rate as that in the 2 ng anti-VEGF antibody-administered group | 32 mg/kg/day | significant effect of suppressing CNV was observed (p<0.05) |
